Results published in ChEMBL document CHEMBL1212841, “Mycenaaurin A, an antibacterial polyene pigment from the fruiting bodies of Mycena aurantiomarginata” (2010).

Test system: Bacillus pumilus
Experiment: Antimicrobial activity Bacillus pumilus at 0.5 umol/disk by disk diffusion method
Type: functional

CC(=O)N[C@@H](CCO[C@H](C)C/C=C/CC[C@@H](O)C/C=C/C=C/C=C/C=C/C=C/C=C/c1cc(O)c(CC[C@H](N)C(=O)O)c(=O)o1)C(=O)O [MYCENAAURIN A]
inhibition zone (IZ): 2.5 cm
